From patent US8691993B2, “Piperidinyl naphthylacetic acids” (Hoffman-La Roche Inc., priority 2011, dated 2014) come the findings set out here.

This experiment concerns Th2 cells. In words: DK-PGD2-Induced IL-13 Production Assay in Th2 Cells. The format is cell-based. Particulars: inhibition of IL-13 production; human Th2 cells; 500 nM DK-PGD2; 4 hrs at 37° C.; ELISA. On the procedure:
DK-PGD2-Induced IL-13 Production Assay in Th2 Cells
Inhibition of 13,14-dihydro-15-keto Prostaglandin D2 (DK-PGD2)-induced IL-13 production in T helper type 2 (Th2) cells was applied to evaluate compound cellular potency.
Cultures of Th2 cells were established from blood of healthy human volunteers according to the following procedure. Peripheral blood mononuclear cells (PBMC) were first isolated from 50 mL of fresh blood by Ficoll-Hypaque density gradient centrifugation, followed by CD4^+ cell purification using a CD4^+ T Cell Isolation Kit II (from Miltenyi Biotec Inc.). The CD4^+ T cells were then differentiated to Th2 cells by culturing the cells in X-VIVO 15® medium (from Cambrex BioScience Walkersville Inc.) containing 10% human AB serum (serum of blood type AB from Invitrogen Corporation), 50 U/mL of recombinant human interleukin-2 (rhIL-2) (from PeproTech Inc.) and 100 ng/mL of recombinant human interleukin-4 (rhIL-4) (from PeproTech Inc.) for 7 days. The Th2 cells were isolated using a CD294 (CRTH2) MicroBead Kit (from Miltenyi Biotec Inc.) and amplified in X-VIVO 15® medium containing 10% human AB serum and 50 U/mL of rhIL-2 for 2 to 5 weeks. In general, 70% to 80% of the Th2 cells used in the assay are CRTH2-positive when analyzed by fluorescence-activated cell sorting using the BM16 antibody (as previously described) conjugated to Alexa Fluor 647.
The spontaneous production of IL-13 by Th2 cells was determined in the absence of DK-PGD2 stimulation and the value was subtracted from that in the presence of each compound for percent inhibition and IC50 calculations.
The percent inhibition of interleukin 13 (IL-13) production for a compound at various concentrations was calculated according to the following formula, [1-(IL-13 production in the presence of compound)/(IL-13 production in the presence of 0.15% DMSO)]×100. The IC50 value, defined as the concentration of a compound that is required for 50% inhibition of IL-13 production, was calculated by fitting the percent inhibition data for 7 concentrations to a sigmoidal dose-response (4 parameter logistic) model in the XLfit® software Excel add-in program [ID Business Solutions Ltd., model 205, where F(x)=(A+(B−A)/(1+((C/x)^D)))].
(In an ELISA, binding on a coated surface is turned into a signal by an enzyme label.)
By IC50 is commonly meant the concentration that gives 50% inhibition. Read a low IC50 as greater potency in that assay. `Cc1c(CC(=O)O)cc2ccc(F)cc2c1C1CCN(S(=O)(=O)c2ccccc2Cl)CC1` [Example 14, {4-[1-(2-Chloro-benzenesulfonyl)-piperidin-4-yl]-6-fluoro-3-methyl-naphthalen-2-yl}-acetic acid] showed an IC50 of 33 nM.

The compound `Cc1c(CC(=O)O)cc2ccc(F)cc2c1C1CCN(S(C)(=O)=O)CC1` [Example 15, [6-Fluoro-4-(1-methanesulfonyl-piperidin-4-yl)-3-methyl-naphthalen-2-yl]-acetic acid] displayed an IC50 of 142 nM.

Take `Cc1c(CC(=O)O)cc2ccc(F)cc2c1C1CCN(S(=O)(=O)c2ccc(Cl)cc2Cl)CC1` [Example 16, {4-[1-(2,4-Dichloro-benzenesulfonyl)-piperidin-4-yl]-6-fluoro-3-methyl-naphthalen-2-yl}-acetic acid]: the IC50 amounted to 22 nM.

For `Cc1c(CC(=O)O)cc2ccc(F)cc2c1C1CCN(S(=O)(=O)c2cc(Cl)ccc2Cl)CC1` [Example 17, {4-[1-(2,5-Dichloro-benzenesulfonyl)-piperidin-4-yl]-6-fluoro-3-methyl-naphthalen-2-yl}-acetic acid], the IC50 is 120 nM.

The compound `Cc1c(CC(=O)O)cc2ccc(F)cc2c1C1CCN(S(=O)(=O)c2c(Cl)cccc2Cl)CC1` [Example 18, {4-[1-(2,6-Dichloro-benzenesulfonyl)-piperidin-4-yl]-6-fluoro-3-methyl-naphthalen-2-yl}-acetic acid] registered an IC50 of 58 nM.

In the case of `Cc1c(CC(=O)O)cc2ccc(F)cc2c1C1CCN(S(=O)(=O)Cc2ccccc2)CC1` [Example 19, [6-Fluoro-3-methyl-4-(1-phenylmethanesulfonyl-piperidin-4-yl)-naphthalen-2-yl]-acetic acid], the half-maximal inhibitory concentration (IC50) was 8 nM.

`COc1ccccc1S(=O)(=O)N1CCC(c2c(C)c(CC(=O)O)cc3ccc(F)cc23)CC1` [Example 20, {6-Fluoro-4-[1-(2-methoxy-benzenesulfonyl)-piperidin-4-yl]-3-methyl-naphthalen-2-yl}-acetic acid] came in with a half-maximal inhibitory concentration (IC50) of 9 nM.

As for `Cc1c(CC(=O)O)cc2ccc(F)cc2c1C1CCN(S(=O)(=O)Cc2cccc(Cl)c2)CC1` [Example 21, {4-[1-(3-Chloro-phenylmethanesulfonyl)-piperidin-4-yl]-6-fluoro-3-methyl-naphthalen-2-yl}-acetic acid], the IC50 was found to be 45 nM.

The compound `Cc1c(CC(=O)O)cc2ccc(F)cc2c1C1CCN(S(=O)(=O)Cc2ccc(Cl)cc2)CC1` [Example 22, {4-[1-(4-Chloro-phenylmethanesulfonyl)-piperidin-4-yl]-6-fluoro-3-methyl-naphthalen-2-yl}-acetic acid] returned an IC50 of 23 nM.

`Cc1c(CC(=O)O)cc2ccc(F)cc2c1C1CCN(S(=O)(=O)c2cccc(C(F)(F)F)c2)CC1` [Example 23] returned an IC50 of 266 nM.

As to `Cc1c(CC(=O)O)cc2ccc(F)cc2c1C1CCN(S(=O)(=O)C2CCCC2)CC1` [Example 24, [4-(1-Cyclopentanesulfonyl-piperidin-4-yl)-6-fluoro-3-methyl-naphthalen-2-yl]-acetic acid], the IC50 is 23 nM.

`Cc1c(CC(=O)O)cc2ccc(F)cc2c1C1CCN(S(=O)(=O)N2CCCC2)CC1` [Example 25, {6-Fluoro-3-methyl-4-[1-(pyrrolidine-1-sulfonyl)-piperidin-4-yl]-naphthalen-2-yl}-acetic acid] displayed an IC50 of 14 nM.

With `Cc1c(CC(=O)O)cc2ccc(F)cc2c1C1CCN(S(=O)(=O)Cc2ccccc2[N+](=O)[O-])CC1` [Example 26, {6-Fluoro-3-methyl-4-[1-(2-nitro-phenylmethanesulfonyl)-piperidin-4-yl]-naphthalen-2-yl}-acetic acid], inhibition was half-maximal at 32 nM (IC50).

`Cc1c(CC(=O)O)cc2ccc(F)cc2c1C1CCN(S(=O)(=O)Cc2ccccc2N)CC1` [Example 27, {4-[1-(2-Amino-phenylmethanesulfonyl)-piperidin-4-yl]-6-fluoro-3-methyl-naphthalen-2-yl}-acetic acid] returned an IC50 of 27 nM.

`Cc1c(CC(=O)O)cc2ccc(F)cc2c1C1CCN(C(=O)c2ccc(Cl)cc2Cl)CC1` [Example 28, {4-[1-(2,4-Dichloro-benzoyl)-piperidin-4-yl]-6-fluoro-3-methyl-naphthalen-2-yl}-acetic acid] showed an IC50 of 60 nM.

For the compound `Cc1c(CC(=O)O)cc2ccc(F)cc2c1C1CCN(C(=O)c2c(Cl)cccc2Cl)CC1` [Example 29, {4-[1-(2,6-Dichloro-benzoyl)-piperidin-4-yl]-6-fluoro-3-methyl-naphthalen-2-yl}-acetic acid], the IC50 amounted to 20 nM.

`Cc1c(CC(=O)O)cc2ccc(F)cc2c1C1CCN(C(=O)c2cc(F)ccc2F)CC1` [Example 30, {4-[1-(2,5-Difluoro-benzoyl)-piperidin-4-yl]-6-fluoro-3-methyl-naphthalen-2-yl}-acetic acid] gave an IC50 of 83 nM.

As to `Cc1c(CC(=O)O)cc2ccc(F)cc2c1C1CCN(C(=O)Cc2ccccc2)CC1` [Example 31, [6-Fluoro-3-methyl-4-(1-phenylacetyl-piperidin-4-yl)-naphthalen-2-yl]-acetic acid], half-maximal inhibition (IC50) was put at 117 nM.

Turning to `Cc1c(CC(=O)O)cc2ccc(F)cc2c1C1CCN(C(=O)Nc2c(F)cccc2F)CC1` [Example 32, {4-[1-(2,6-Difluoro-phenylcarbamoyl)-piperidin-4-yl]-6-fluoro-3-methyl-naphthalen-2-yl}-acetic acid], the midpoint of inhibition, the IC50, lay at 371 nM.

`Cc1c(CC(=O)O)cc2ccc(F)cc2c1C1CCN(C(=O)Nc2ccc(Cl)cc2Cl)CC1` [Example 33, {4-[1-(2,4-Dichloro-phenylcarbamoyl)-piperidin-4-yl]-6-fluoro-3-methyl-naphthalen-2-yl}-acetic acid] showed an IC50 of 30 nM.

`Cc1c(CC(=O)O)cc2ccc(F)cc2c1C1CCN(C(=O)Nc2ccccc2Cl)CC1` [Example 34, {4-[1-(2-Chloro-phenylcarbamoyl)-piperidin-4-yl]-6-fluoro-3-methyl-naphthalen-2-yl}-acetic acid] registered an IC50 of 59 nM.

`COc1ccccc1NC(=O)N1CCC(c2c(C)c(CC(=O)O)cc3ccc(F)cc23)CC1` [Example 35, {6-Fluoro-4-[1-(2-methoxy-phenylcarbamoyl)-piperidin-4-yl]-3-methyl-naphthalen-2-yl}-acetic acid]: the IC50 was found to be 241 nM.

With `Cc1c(CC(=O)O)cc2ccc(F)cc2c1C1CCN(C(=O)Nc2cccc(C(F)(F)F)c2)CC1` [Example 36], it took 437 nM to reach half-maximal inhibition (IC50).
